Assay results published in paper PMC5736709, “Unravelling the specificity and mechanism of sialic acid recognition by the gut symbiont Ruminococcus gnavus” (Nature Communications, 2017).
Where “and” joins values, the source holds several entries; their conditions need not be identical. Equal entries are not always repeated. Entries after “also recorded” stand apart in the source; their conditions may differ.

T1: RgCBM40 Y210A (Mediterraneibacter gnavus (Ruminococcus gnavus), UniProt A7B557, Y210A)
T1 sequence (A7B557 50-237 Y210A): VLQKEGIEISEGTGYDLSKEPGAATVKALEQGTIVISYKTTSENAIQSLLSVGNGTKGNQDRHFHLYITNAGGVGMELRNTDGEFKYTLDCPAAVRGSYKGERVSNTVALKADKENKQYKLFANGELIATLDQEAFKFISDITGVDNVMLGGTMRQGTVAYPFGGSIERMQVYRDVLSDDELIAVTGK

T2: RgCBM40 R128A (Mediterraneibacter gnavus (Ruminococcus gnavus), UniProt A7B557, R128A)
T2 sequence (A7B557 50-237 R128A): T1 sequence (A7B557 50-237 Y210A)

T3: RgCBM40 R128A/R204A (Mediterraneibacter gnavus (Ruminococcus gnavus), UniProt A7B557, R128A/R204A)
T3 sequence (A7B557 50-237 R128A/R204A): T1 sequence (A7B557 50-237 Y210A)

T4: RgCBM40 Y116A (Mediterraneibacter gnavus (Ruminococcus gnavus), UniProt A7B557, Y116A)
T4 sequence (A7B557 50-237 Y116A): T1 sequence (A7B557 50-237 Y210A)

T5: RgCBM40 E126A (Mediterraneibacter gnavus (Ruminococcus gnavus), UniProt A7B557, E126A)
T5 sequence (A7B557 50-237 E126A): T1 sequence (A7B557 50-237 Y210A)

T6: RgCBM40 I95A (Mediterraneibacter gnavus (Ruminococcus gnavus), UniProt A7B557, I95A)
T6 sequence (A7B557 50-237 I95A): T1 sequence (A7B557 50-237 Y210A)

T7: RgCBM40 R204A (Mediterraneibacter gnavus (Ruminococcus gnavus), UniProt A7B557, R204A)
T7 sequence (A7B557 50-237 R204A): T1 sequence (A7B557 50-237 Y210A)

B1: RgCBM40 (residues 50–237 of RgNanH), preparation for all other protein assays (ELISA) (domain or fragment, Ruminococcus gnavus ATCC 29149, UniProt A7B557 50-237, looked up)
chain: T1 sequence (A7B557 50-237 Y210A)
notes: in the ELISA it was detected with anti-RgNanH antiserum

Experiments:
[1] = target: T1, RgCBM40 Y210A; test: ITC of sialoglycans binding to RgCBM40 mutant Y210A; set-up: species or system Ruminococcus gnavus ATCC 29149
Description: (§1) Isothermal titration calorimetry (ITC) experiments were performed using the PEAQ-ITC system (Malvern, Malvern, UK) with a cell volume of 200 µl. Prior to titration protein samples were exhaustively dialysed into PBS. The ligand was dissolved in the dialysis buffer. The cell protein concentration was 115 µM (except for mutant I95A where it was 173 µM and the wild-type interaction with 6′SL where it was 230 µM) and the syringe ligand concentration was 10 mM (25 mM for Neu5Ac). Controls with titrant (sugar) injected into buffer only were subtracted from the data. Analysis was performed using Malvern software, using a single-binding site model. The stoichiometry of binding sites was set to 1.0 as this was evident from the crystal structure. Quantitative and most qualitative experiments were carried out in triplicate.

[2] = test system: RgCBM40 binding to LS174T MUC2; test: ELISA of RgCBM40 binding to LS174T MUC2 in competition with sugars; set-up: species or system Ruminococcus gnavus ATCC 29149; details: RgCBM40 preincubated with 1 mM free sugar overnight at 4 °C; immobilised LS174T MUC2; A450
Description: RgCBM40 binding to purified mucins was tested by ELISA. Mucins (100 μl of 10 μg ml^−1) were immobilised onto a high binding 96 well plate (Greiner, Stonehouse, UK) overnight at 4 °C. All subsequent steps were carried out for 1 h at room temperature. The plates were blocked with 3% (w/v) BSA, incubated with RgCBM40 (500 μg ml^−1), followed by an incubation with 1:5000 anti-RgNanH (raised in rabbit, Biogenes) then with 1:5000 anti-rabbit secondary antibody (raised in donkey) conjugated to peroxidase (GE Healthcare). Between each step, the plate was washed with 3 × 300 μl of PBS containing 0.05% (v/v) Tween 20 (PBST). Prior to detection, an additional wash step and 30 s incubation with PBST was carried out. Binding was detected using tetramethylbenzidine (TMB) visualisation solution (Biolegend, San Diego, CA, USA) which was incubated for 15 min. The reaction was stopped by addition of 2 M H2SO4 and absorbance measured at 450 nm using a plate-reader (Bench Marl Plus, Biorad), subtracting background readings at 570 nm. Negative controls including no RgCBM40 (subtracted from A450 value), no primary or no secondary antibody were carried out in parallel. For comparison between plates, values were normalised to the reading for LS174T MUC2 which was arbitrarily set at 100%. For enzymatic treatment of the mucin, LS174T MUC2 (2 mg ml^−1) was incubated with sialidases (2 µg ml^−1) overnight at 4 °C on a rotary wheel prior to immobilisation on the plate. For chemical treatment of mucin, LS174T MUC2 was incubated with 0.1 M trifluoroacetic acid (TFA) at 80 °C for 1 h, dialysed against ammonium bicarbonate (50 mM), lyophilised and redissolved in H2O. For the competition assays, RgCBM40 was incubated with 1 mM of free sugar overnight at 4 °C on a rotary wheel prior to addition to the ELISA plate as above. Experiments were carried out in triplicate.

[3] = target: T2, RgCBM40 R128A; test: ITC of sialoglycans binding to RgCBM40 mutant R128A; set-up: species or system Ruminococcus gnavus ATCC 29149
Description: (§2) Site directed mutagenesis of RgGH33 to introduce the D282A mutation in the active site was carried out using the QuikChange kit, following the manufacturer’s instructions, Agilent (Santa Clara, CA, USA). Site-directed mutants of RgCBM40; I95A, Y116A, E126A, R128A, R204A and double mutant R128A/R204A, were obtained from NZyTech (Lisbon, Portugal). The primers are listed in Supplementary Table 4. The integrity of the RgGH33 and RgCBM40 mutants was checked by circular dichroism (CD).
as §1

[4] = target: T8, RgCBM40 (Mediterraneibacter gnavus (Ruminococcus gnavus), UniProt A7B557); test: STD NMR of sialoglycans with RgCBM40 WT; set-up: species or system Ruminococcus gnavus ATCC 29149; details: 1 mM sialoglycan, 50 μM RgCBM40 WT, 288 K; 'exception' = monosaccharides for which binding was not detected
Description: ^1H and ^13C resonance assignment for all the sugars was performed on the bases of 1D ^1H, 2D DQF-COSY, TOCSY, HSQC and NOESY experiments run on the free ligands in unbuffered D2O, pH 7.0. For STD NMR experiments, all the samples consisted of 1 mM sialoglycans and 50 μM RgCBM40 (WT or I95A mutant) in D2O buffer solution of 10 mM Tris-d11 pH 7.8 and 100 mM NaCl (ligand: protein ratio 20:1). An STD pulse sequence that included 2.5 ms and 5 ms trim pulses and a 3 ms spoil gradient was used. Saturation was achieved applying a train of 50 ms Gaussian pulses (0.40 mW) on the f2 channel, at 0.60 p.p.m. (on-resonance experiments) and 40 p.p.m. (off-resonance experiments). The broad protein signals were removed using a 40 ms spinlock (T1ρ) filter. All the experiments were recorded at ^1H frequency of 800.23 MHz on a Bruker Avance III spectrometer equipped with a 5 mm probe TXI 800 MHz H-C/N-D-05 Z BTO, at 288 K. For all the sialoglycans in the presence of RgCBM40, an STD experiment with a saturation time of 2 s and a relaxation delay of 5 s was performed, as a first test for binding. For the confirmed binders, the STD NMR experiments were carried out at different saturation times (0.5, 1, 2, 3, 4 and 5 s) with 1 K scans and relaxation delay of 5 s, in order to obtain the binding epitope mapping. The resulting build-up curves for each proton were fitted mathematically to a mono-exponential equation (y = a×[1-exp(b×x)]), from which the initial slopes (a×b) were obtained. For each ligand, the binding epitope mapping was obtained by dividing the initial slopes by the one of the H7 proton of the corresponding sialic acid ring, to which an arbitrary value of 100% was assigned. This normalisation of the STD values allows the comparison across all the sialoglycans.

[5] = target: T3, RgCBM40 R128A/R204A; test: ITC of sialoglycans binding to RgCBM40 double mutant R128A/R204A; set-up: species or system Ruminococcus gnavus ATCC 29149
Description: as §2, §1

[6] = target: T4, RgCBM40 Y116A; test: ITC of sialoglycans binding to RgCBM40 mutant Y116A; set-up: species or system Ruminococcus gnavus ATCC 29149
Description: as §2, §1

[7] = target: T5, RgCBM40 E126A; test: ITC of sialoglycans binding to RgCBM40 mutant E126A; set-up: species or system Ruminococcus gnavus ATCC 29149
Description: as §2, §1

[8] = target: T6, RgCBM40 I95A; test: ITC of sialoglycans binding to RgCBM40 mutant I95A; set-up: species or system Ruminococcus gnavus ATCC 29149; details: 173 µM protein, syringe 10 mM sugar (25 mM for Neu5Ac), * = estimate only
Description: as §2, §1

[9] = target: T7, RgCBM40 R204A; test: ITC of sialoglycans binding to RgCBM40 mutant R204A; set-up: species or system Ruminococcus gnavus ATCC 29149
Description: as §2, §1

[10] = target: T8, RgCBM40; test: ITC of sialoglycans binding to RgCBM40 wild type; set-up: species or system Ruminococcus gnavus ATCC 29149; details: RgCBM40 WT
Description: as §1

[11] = target: T9, LS174T MUC2 treated with trifluoroacetic acid or a sialidase to remove sialic acid (human (endogenous in LS174T), UniProt Q02817 21-5289, O-glycans with sialic acid removed by TFA or by a sialidase from C. perfringens, S. typhimurium, A. muciniphila or R. gnavus; reduced with dithiothreitol and alkylated with iodoacetamide); test: ELISA; mucins (100 µl of 10 µg ml^-1) immobilised on a 96 well plate, RgCBM40 at 500 µg ml^-1 for 1 h at room temperature, detected with rabbit anti-RgNanH and a peroxidase-conjugated secondary antibody, A450; values normalised to LS174T MUC2 = 100%; details: both partners purified
T9 construct: MUC2, gel-forming mucin secreted by the human LS174T cell line; also called MUC2 treated chemically (TFA) or enzymatically with a sialidase (Cp, St, Am/Ak, Rg)

Row | Molecule | Binding by ITC (in words) [1] | Kd ([1]; ITC) [mM] | Effect of free sugar on adherence of RgCBM40 to MUC2 [2] | Binding by ITC (in words) [3] | Kd ([3]; ITC) [mM] | Binding to RgCBM40 detected by STD NMR [4] | Binding by ITC (in words) [5] | Kd ([5]; ITC) [mM] | Binding by ITC (in words) [6] | Kd ([6]; ITC) [mM] | Binding by ITC (in words) [7] | Kd ([7]; ITC) [mM] | Kd [8] [mM] | Binding by ITC (in words) [9] | Kd ([9]; ITC) [mM] | Kd ([10]; Kd, ITC in PBS, 115-230 μM protein in cell, syringe 10 mM sugar (25 mM for Neu5Ac), * = estimate only, Kd too high to determine) | Binding to RgCBM40 (in words) [10] | binding result [11]
1 | CC(=O)N[C@H]1[C@H]([C@H](O)[C@H](O)CO)OC(O)(C(=O)O)C[C@@H]1O (stereo partly drawn) [Neu5Ac, N-acetylneuraminic acid] | abolished | > 25 | no effect | abolished | > 25 | exception; also recorded: no interaction was observed | abolished | > 25 | abolished | > 25 | abolished | > 25 | ~23 | abolished | > 25 | ~21 mM and ~20 mM | weak binding | 
2 | B1 |  |  |  |  |  |  |  |  |  |  |  |  |  |  |  |  |  | binds
